Data reported in patent US20200140489A1 (priority 2013, published 2020).
Read-outs that look alike come from different tables or passages of the source. Positions of bridges follow the written chain, without caps; N, C: chain ends. Non-standard residues stand in square brackets, D forms with d. Residues, ends and D or L forms follow the SMILES beside them. *: point of attachment. X1 = CC[C@@H](C)C1NC(=O)CN(CC(=O)*)C1=O; NMeI = CC[C@H](C)[C@H](NC)C(=O)O; NMeD = CN[C@@H](CC(=O)O)C(=O)O; NMeL = CN[C@@H](CC(C)C)C(=O)O; Nleu = CC(C)CNCC(=O)O; Aoc = NCCCCCCCC(=O)O; GABA = NCCCC(=O)O

What was measured:
AgrC-III = AgrC-III (Staphylococcus aureus, UniProt O33590); format: cell-based, S. aureus; conditions: for IC50: read-out: AgrC-III IC50, fluorescence reporter strain; for AgrC-III activity: gfp/fluorescence assay; for AgrC-III % Activation: fluorescence of treated vs non-treated wild-type bacteria, lower % activation = more potent inhibition
AgrC-IV = AgrC-IV (Staphylococcus aureus, UniProt Q309Z2); format: cell-based, S. aureus; conditions: for AgrC-IV activity: gfp/fluorescence assay; for IC50: read-out: AgrC-IV IC50; for AgrC-IV % Activation: fluorescence of treated vs non-treated wild-type bacteria, lower % activation = more potent inhibition
AgrC-I = AgrC-I (Staphylococcus aureus, UniProt O07911); format: cell-based, S. aureus; conditions: for IC50: read-out: AgrC-I IC50, fluorescence reporter strain; for AgrC-I % Activation: fluorescence of treated vs non-treated wild-type bacteria, lower % activation = more potent inhibition
AgrC-II [1] = molecular target: T1, AgrC-II (Staphylococcus aureus, UniProt O33587); format: cell-based, S. aureus; conditions: for IC50: read-out: AgrC-II IC50, fluorescence reporter strain; for AgrC-II % Activation: fluorescence of treated vs non-treated wild-type bacteria, lower % activation = more potent inhibition
AgrC-II [2] = molecular target: T1, AgrC-II; test: Hemolysis assay, wild-type group-II strain RN6923, rabbit red blood cells; conditions: read-out: AgrC-II IC50; hemolysis assay; 200 fM − 10 μM
[3] = AIPs tested over 200 fM − 10 μM or (b1) 2.5 pM − 10 μM, triplicate
[4] = fluorescence reporter strain, AIPs tested over 200 fM − 10 μM or (b1) 2.5 pM − 10 μM, triplicate
[5] = second-generation analogues, 200 fM − 10 μM
[6] = second-generation analogues, fluorescence reporter strain, 200 fM − 10 μM

T1 sequence (O33587 1-437): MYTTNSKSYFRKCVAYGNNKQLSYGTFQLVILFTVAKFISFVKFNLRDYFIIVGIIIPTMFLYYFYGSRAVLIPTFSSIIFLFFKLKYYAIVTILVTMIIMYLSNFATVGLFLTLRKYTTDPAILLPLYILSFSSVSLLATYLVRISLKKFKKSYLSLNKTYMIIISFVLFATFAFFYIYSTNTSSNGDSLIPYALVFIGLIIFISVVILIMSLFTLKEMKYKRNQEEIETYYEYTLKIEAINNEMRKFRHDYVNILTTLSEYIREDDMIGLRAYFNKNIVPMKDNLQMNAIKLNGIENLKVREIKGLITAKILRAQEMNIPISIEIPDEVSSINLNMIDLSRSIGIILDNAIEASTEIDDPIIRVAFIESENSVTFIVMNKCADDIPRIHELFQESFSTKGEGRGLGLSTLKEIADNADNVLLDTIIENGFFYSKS
AgrC-III, sequence (O33590 1-425): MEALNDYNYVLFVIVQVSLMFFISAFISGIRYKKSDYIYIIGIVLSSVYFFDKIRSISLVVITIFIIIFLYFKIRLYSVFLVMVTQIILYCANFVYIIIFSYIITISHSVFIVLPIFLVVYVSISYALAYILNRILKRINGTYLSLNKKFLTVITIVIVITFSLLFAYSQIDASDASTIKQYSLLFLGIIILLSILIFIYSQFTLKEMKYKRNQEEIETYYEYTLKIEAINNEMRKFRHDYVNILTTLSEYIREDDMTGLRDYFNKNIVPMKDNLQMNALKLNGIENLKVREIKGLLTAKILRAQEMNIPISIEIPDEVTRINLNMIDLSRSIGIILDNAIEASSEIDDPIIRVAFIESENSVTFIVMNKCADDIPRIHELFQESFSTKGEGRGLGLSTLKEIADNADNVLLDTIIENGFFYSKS
AgrC-IV, sequence (Q309Z2 1-430): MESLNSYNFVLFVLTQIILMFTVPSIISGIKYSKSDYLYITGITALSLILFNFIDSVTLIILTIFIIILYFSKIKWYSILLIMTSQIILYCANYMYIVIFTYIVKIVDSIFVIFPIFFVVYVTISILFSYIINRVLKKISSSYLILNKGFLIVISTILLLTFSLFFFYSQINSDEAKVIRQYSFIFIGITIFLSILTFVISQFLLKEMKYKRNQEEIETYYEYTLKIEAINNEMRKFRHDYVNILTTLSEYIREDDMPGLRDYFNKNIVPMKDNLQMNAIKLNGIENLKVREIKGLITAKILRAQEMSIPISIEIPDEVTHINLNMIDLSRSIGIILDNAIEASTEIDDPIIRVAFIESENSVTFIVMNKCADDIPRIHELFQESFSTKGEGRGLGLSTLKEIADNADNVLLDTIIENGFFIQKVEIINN
AgrC-I, sequence (O07911 1-430): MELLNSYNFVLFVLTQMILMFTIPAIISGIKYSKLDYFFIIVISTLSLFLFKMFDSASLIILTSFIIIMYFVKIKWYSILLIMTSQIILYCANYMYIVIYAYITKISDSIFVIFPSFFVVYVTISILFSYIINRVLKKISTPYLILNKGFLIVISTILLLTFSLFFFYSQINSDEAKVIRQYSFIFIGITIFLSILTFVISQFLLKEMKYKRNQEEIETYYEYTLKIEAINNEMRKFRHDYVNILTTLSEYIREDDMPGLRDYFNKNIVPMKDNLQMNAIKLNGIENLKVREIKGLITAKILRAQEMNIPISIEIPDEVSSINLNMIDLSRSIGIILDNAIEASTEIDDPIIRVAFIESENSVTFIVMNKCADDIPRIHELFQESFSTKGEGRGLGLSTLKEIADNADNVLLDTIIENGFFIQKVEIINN

| SMILES | IC50 (AgrC-III; [3]) | IC50 (AgrC-IV; [4]) | IC50 (AgrC-I; [3]) | AgrC-III activity (AgrC-III) | IC50 (AgrC-III; [5]) | IC50 (AgrC-IV; [6]) | IC50 (AgrC-I; [5]) | IC50 (AgrC-II [1]; [5]) | IC50 (AgrC-II [1]; [3]) | other results |
| --- | --- | --- | --- | --- | --- | --- | --- | --- | --- | --- |
| CC[C@H](C)[C@H](N)C(=O)N[C@@H](CC(N)=O)C(=O)N[C@H]1CSC(=O)[C@H](CC(C)C)NC(=O)[C@H](CC(C)C)N(C)C(=O)[C@H](Cc2ccccc2)NC(=O)[C@H](CC(=O)O)NC1=O [AIP-III N-Me-L6, I-N-(C-D-F-NMeL-L)] (H-INCDF[NMeL]L; thioester 3-C) | 162 nM | 81.6 nM | > 1000 nM | – | – | – | – | – | – | AgrC-IV activity (AgrC-IV): AgrC-IV selective inhibitor |
| CC[C@H](C)[C@H](NC(C)=O)C(=O)N[C@@H](CC(N)=O)C(=O)N[C@H]1CSC(=O)[C@H](CC(C)C)NC(=O)[C@H](CC(C)C)NC(=O)[C@H](Cc2ccccc2)NC(=O)[C@H](CC(=O)O)NC1=O [Ac-AIP-III, Ac-I-N-(C-D-F-L-L)] (Ac-INCDFLL; thioester 3-C) | – | – | – | largely inactive | > 200 nM | > 200 nM | > 200 nM | 44.3 nM | – | – |
| CC[C@H](C)[C@H](NC(=O)[C@@H](N)Cc1ccc(O)cc1)C(=O)N[C@@H](CC(N)=O)C(=O)N[C@H]1CSC(=O)[C@H](CC(C)C)NC(=O)[C@H](CC(C)C)NC(=O)[C@H](Cc2ccccc2)NC(=O)[C@H](CC(=O)O)NC1=O [Y-AIP-III, Y-I-N-(C-D-F-L-L)] (H-YINCDFLL; thioester 4-C) | – | – | – | moderate antagonist | 39.2 nM | 78.2 nM | 8.92 nM | 3.75 nM | – | – |
| CC[C@H](C)[C@H](NC)C(=O)N[C@@H](CC(N)=O)C(=O)N[C@H]1CSC(=O)[C@H](CC(C)C)NC(=O)[C@H](CC(C)C)NC(=O)[C@H](Cc2ccccc2)NC(=O)[C@H](CC(=O)O)NC1=O [AIP-III N-Me-I1, NMeI-N-(C-D-F-L-L)] (H-[NMeI]NCDFLL; thioester 3-C) | > 1000 nM | 49.2 nM | 60.8 nM | – | – | – | – | – | 12.8 nM | – |
| CC[C@H](C)[C@H](N)C(=O)N[C@@H](CC(N)=O)C(=O)N[C@H]1CSC(=O)[C@H](CC(C)C)NC(=O)[C@H](C)NC(=O)[C@H](Cc2ccccc2)NC(=O)[C@H](CC(=O)O)NC1=O [AIP-III L6A, I-N-(C-D-F-A-L)] (H-INCDFAL; thioester 3-C) | > 200 nM | > 200 nM | > 200 nM | – | – | – | – | – | > 200 nM | – |
| CC[C@H](C)[C@H](N)C(=O)N[C@@H](CC(N)=O)C(=O)N[C@H]1CSC(=O)[C@H](CC(C)C)N(C)C(=O)[C@H](CC(C)C)NC(=O)[C@H](Cc2ccccc2)NC(=O)[C@H](CC(=O)O)NC1=O [AIP-III N-Me-L7, I-N-(C-D-F-L-NMeL)] (H-INCDFL[NMeL]; thioester 3-C) | > 1000 nM | – | – | – | – | – | – | – | – | AgrC-IV IC50 (AgrC-IV; [4]): _h |
| CC[C@H](C)[C@H](N)C(=O)N[C@@H](CC(N)=O)C(=O)N[C@H]1CSC(=O)[C@H](C)NC(=O)[C@H](CC(C)C)NC(=O)[C@H](Cc2ccccc2)NC(=O)[C@H](CC(=O)O)NC1=O [AIP-III L7A, I-N-(C-D-F-L-A)] (H-INCDFLA; thioester 3-C) | > 200 nM | > 200 nM | > 200 nM | largely inactive | – | – | – | – | > 200 nM | – |
| CC(C)C[C@@H]1NC(=O)[C@H](Cc2ccccc2)NC(=O)[C@H](CC(=O)O)NC(=O)[C@@H](NC(=O)[C@H](C)NC(=O)[C@H](C)N)CSC(=O)[C@H](CC(C)C)NC1=O [AIP-III I1A/N2A, A-A-(C-D-F-L-L)] (H-AACDFLL; thioester 3-C) | – | – | – | – | 2.6 nM | 5.41 nM | 7.4 nM | 4.38 nM | – | – |
| CC[C@@H](C)C1NC(=O)CN(CC(=O)N[C@H]2CSC(=O)[C@H](CC(C)C)NC(=O)[C@H](CC(C)C)NC(=O)[C@H](Cc3ccccc3)NC(=O)[C@H](CC(=O)O)NC2=O)C1=O (stereo partly drawn) [AIP-III nN2 DKP, (I-nN)-(C-D-F-L-L)] (X1-CDFLL; thioester 1-C) | 25.1 nM | 84.8 nM | 126 nM | AgrC-III inhibitor | – | – | – | – | 4.28 nM | – |
| CC(=O)N[C@H]1CSC(=O)[C@H](CC(C)C)NC(=O)[C@H](CC(C)C)NC(=O)[C@H](Cc2ccccc2)NC(=O)[C@H](CC(=O)O)NC1=O [tAIP-III, Ac-(C-D-F-L-L)] (Ac-CDFLL; thioester 1-C) | – | – | – | largely inactive | > 200 nM | 25.5 nM | 26.7 nM | 1.53 nM | – | – |
| CC[C@H](C)[C@H](N)C(=O)N[C@@H](CC(N)=O)C(=O)N[C@H]1CSC(=O)[C@H](CC(C)C)NC(=O)[C@H](CC(C)C)NC(=O)[C@H](Cc2ccccc2)NC(=O)CN(CC(=O)O)C1=O [AIP-III nD4, I-N-(C-nD-F-L-L)] | – | 53.2 nM | 162 nM | – | – | – | – | – | 28.3 nM | – |
| CC[C@H](C)[C@H](N)C(=O)N[C@@H](CC(N)=O)C(=O)N[C@H]1CSC(=O)[C@H](CC(C)C)NC(=O)[C@H](CC(C)C)NC(=O)[C@H](Cc2ccccc2)NC(=O)[C@H](CC(=O)O)N(C)C1=O [AIP-III N-Me-D4, I-N-(C-NMeD-F-L-L)] (H-INC[NMeD]FLL; thioester 3-C) | 90.2 nM | 36.9 nM | 172 nM | – | – | – | – | – | 7.98 nM | – |
| CC[C@H](C)[C@H](NC(=O)[C@H](C)N)C(=O)N[C@@H](CC(N)=O)C(=O)N[C@H]1CSC(=O)[C@H](CC(C)C)NC(=O)[C@H](CC(C)C)NC(=O)[C@H](Cc2ccccc2)NC(=O)[C@H](CC(=O)O)NC1=O [A-AIP-III, A-I-N-(C-D-F-L-L)] (H-AINCDFLL; thioester 4-C) | – | – | – | partial agonist | 27.5 nM | 28.5 nM | 26.1 nM | 6.4 nM | – | AgrC-IV activity (AgrC-IV): partial agonism |
| CC[C@H](C)[C@H](N)C(=O)N[C@@H](CC(N)=O)C(=O)N[C@H]1CSC(=O)[C@H](CC(C)C)NC(=O)CN(CC(C)C)C(=O)[C@H](Cc2ccccc2)NC(=O)[C@H](CC(=O)O)NC1=O [AIP-III nL6, I-N-(C-D-F-nL-L)] (H-INCDF[Nleu]L; thioester 3-C) | > 1000 nM | > 1000 nM | – | – | – | – | – | – | – | – |
| CC[C@H](C)[C@H](NC(=O)CN)C(=O)N[C@@H](CC(N)=O)C(=O)N[C@H]1CSC(=O)[C@H](CC(C)C)NC(=O)[C@H](CC(C)C)NC(=O)[C@H](Cc2ccccc2)NC(=O)[C@H](CC(=O)O)NC1=O [G-AIP-III, G-I-N-(C-D-F-L-L)] (H-GINCDFLL; thioester 4-C) | – | – | – | largely inactive | > 200 nM | 104 nM | 29.9 nM | 13.7 nM | – | – |
| CC[C@H](C)[C@H](N)C(=O)N[C@@H](CC(N)=O)C(=O)N[C@H]1CSC(=O)[C@H](CC(C)C)NC(=O)[C@H](CC(C)C)NC(=O)[C@H](C)NC(=O)[C@H](CC(=O)O)NC1=O [AIP-III F5A, I-N-(C-D-A-L-L)] (H-INCDALL; thioester 3-C) | > 200 nM | 118 nM | > 200 nM | – | – | – | – | – | > 200 nM | IC50 (AgrC-II [2]): 44.7 nM |
| CC(=O)N[C@H]1CSC(=O)[C@H](Cc2ccccc2)NC(=O)[C@H](CC(C)C)NC(=O)CCCNC1=O [n3LF] (Ac-C[GABA]LF; thioester 1-C) | – | – | – | global inhibitor of all four AgrC receptors | – | – | – | – | – | AgrC-III % Activation (AgrC-III): 13 ± 7%; AgrC-IV % Activation (AgrC-IV): 6 ± 3%; AgrC-IV activity (AgrC-IV): global inhibitor of all four AgrC receptors; AgrC-I % Activation (AgrC-I): 17 ± 7%; AgrC-I activity described in text (AgrC-I; gfp/fluorescence assay): global inhibitor of all four AgrC receptors; AgrC-II % Activation (AgrC-II [1]): 28 ± 10%; AgrC-II activity described in text (AgrC-II [1]; gfp/fluorescence assay): global inhibitor of all four AgrC receptors |
| CC(=O)N[C@H]1CSC(=O)[C@H](Cc2ccccc2)NC(=O)[C@H](CC(C)C)NC(=O)CCCCCCCNC1=O [n7LF] (Ac-C[Aoc]LF; thioester 1-C) | – | – | – | selective group-III inhibitors | – | – | – | – | – | AgrC-III % Activation (AgrC-III): 7 ± 3%; AgrC-IV % Activation (AgrC-IV): 98 ± 14%; AgrC-I % Activation (AgrC-I): 54 ± 34%; AgrC-II % Activation (AgrC-II [1]): 43 ± 25% |
